Reference: ChEMBL document CHEMBL3112480, “γ-Alkylidene-γ-lactones and isobutylpyrrol-2(5H)-ones analogues to rubrolides as inhibitors of biofilm formation by gram-positive and gram-negative bacteria” (Bioorg Med Chem Lett, 2014)
Converted amounts (≈) assume the structure as drawn.

Tests used:
[1] = tested on: Staphylococcus epidermidis; experiment: Antibacterial activity against Staphylococcus epidermidis ATCC 35547 assessed as effect on planktonic growth at 43.8 ug/ml after 20 hrs relative to control; format: functional
Pseudomonas aeruginosa [2] = experiment: Antibacterial activity against Pseudomonas aeruginosa ATCC 27853 assessed as effect on planktonic growth at 5.5 ug/ml after 20 hrs relative to control; format: functional
[3] = tested on: Staphylococcus epidermidis; experiment: Antibacterial activity against Staphylococcus epidermidis ATCC 35547 assessed as effect on planktonic growth at 21.9 ug/ml after 20 hrs relative to control; format: functional
Streptococcus mutans [4] = experiment: Antibacterial activity against Streptococcus mutans ATCC 25175 assessed as effect on planktonic growth at 10.9 ug/ml after 20 hrs relative to control; format: functional
Staphylococcus aureus [5] = experiment: Antibacterial activity against Staphylococcus aureus ATCC 25923 assessed as effect on planktonic growth at 10.9 ug/ml after 20 hrs relative to control; format: functional
[6] = tested on: Staphylococcus epidermidis; experiment: Antibacterial activity against Staphylococcus epidermidis ATCC 35547 assessed as effect on planktonic growth at 5.5 ug/ml after 20 hrs relative to control; format: functional
Pseudomonas aeruginosa [7] = experiment: Antibacterial activity against Pseudomonas aeruginosa ATCC 27853 assessed as effect on planktonic growth at 21.9 ug/ml after 20 hrs relative to control; format: functional
Staphylococcus aureus [8] = experiment: Antibacterial activity against Staphylococcus aureus ATCC 25923 assessed as effect on planktonic growth at 5.5 ug/ml after 20 hrs relative to control; format: functional
Streptococcus mutans [9] = experiment: Antibacterial activity against Streptococcus mutans ATCC 25175 assessed as effect on planktonic growth at 0.34 ug/ml after 20 hrs relative to control; format: functional
Streptococcus mutans [10] = experiment: Antibacterial activity against Streptococcus mutans ATCC 25175 assessed as effect on planktonic growth at 2.73 ug/ml after 20 hrs relative to control; format: functional
[11] = tested on: Staphylococcus epidermidis; experiment: Antibacterial activity against Staphylococcus epidermidis ATCC 35547 assessed as effect on planktonic growth at 0.17 ug/ml after 20 hrs relative to control; format: functional
Streptococcus mutans [12] = experiment: Antibacterial activity against Streptococcus mutans ATCC 25175 assessed as effect on planktonic growth at 1.37 ug/ml after 20 hrs relative to control; format: functional
Staphylococcus aureus [13] = experiment: Antibacterial activity against Staphylococcus aureus ATCC 25923 assessed as effect on planktonic growth at 1.37 ug/ml after 20 hrs relative to control; format: functional
Pseudomonas aeruginosa [14] = experiment: Antibacterial activity against Pseudomonas aeruginosa ATCC 27853 assessed as effect on planktonic growth at 43.8 ug/ml after 20 hrs relative to control; format: functional
Pseudomonas aeruginosa [15] = experiment: Antibacterial activity against Pseudomonas aeruginosa ATCC 27853 assessed as inhibition of biofilm formation after 20 hrs by crystal-violet staining method; format: functional, organism-based; conditions: for IC50: ATCC 27853, 20 h
Streptococcus mutans [16] = experiment: Antibacterial activity against Streptococcus mutans ATCC 25175 assessed as effect on planktonic growth at 5.5 ug/ml after 20 hrs relative to control; format: functional
Staphylococcus aureus [17] = experiment: Antibacterial activity against Staphylococcus aureus ATCC 25923 assessed as effect on planktonic growth at 0.34 ug/ml after 20 hrs relative to control; format: functional
Pseudomonas aeruginosa [18] = experiment: Antibacterial activity against Pseudomonas aeruginosa ATCC 27853 assessed as effect on planktonic growth at 0.17 ug/ml after 20 hrs relative to control; format: functional
[19] = tested on: Staphylococcus epidermidis; experiment: Antibacterial activity against Staphylococcus epidermidis ATCC 35547 assessed as inhibition of biofilm formation after 20 hrs by crystal-violet staining method; format: functional, organism-based; conditions: for IC50: ATCC 35547, 20 h
[20] = tested on: Staphylococcus epidermidis; experiment: Antibacterial activity against Staphylococcus epidermidis ATCC 35547 assessed as effect on planktonic growth at 0.34 ug/ml after 20 hrs relative to control; format: functional
Streptococcus mutans [21] = experiment: Antibacterial activity against Streptococcus mutans ATCC 25175 assessed as effect on planktonic growth at 43.8 ug/ml after 20 hrs relative to control; format: functional
Pseudomonas aeruginosa [22] = experiment: Antibacterial activity against Pseudomonas aeruginosa ATCC 27853 assessed as effect on planktonic growth at 2.73 ug/ml after 20 hrs relative to control; format: functional
Pseudomonas aeruginosa [23] = experiment: Antibacterial activity against Pseudomonas aeruginosa ATCC 27853 assessed as effect on planktonic growth at 10.9 ug/ml after 20 hrs relative to control; format: functional
Staphylococcus aureus [24] = experiment: Antibacterial activity against Staphylococcus aureus ATCC 25923 assessed as effect on planktonic growth at 2.73 ug/ml after 20 hrs relative to control; format: functional
Streptococcus mutans [25] = experiment: Antibacterial activity against Streptococcus mutans ATCC 25175 assessed as effect on planktonic growth at 0.68 ug/ml after 20 hrs relative to control; format: functional
[26] = tested on: Staphylococcus epidermidis; experiment: Antibacterial activity against Staphylococcus epidermidis ATCC 35547 assessed as effect on planktonic growth at 10.9 ug/ml after 20 hrs relative to control; format: functional
Staphylococcus aureus [27] = experiment: Antibacterial activity against Staphylococcus aureus ATCC 25923 assessed as effect on planktonic growth at 0.17 ug/ml after 20 hrs relative to control; format: functional
Pseudomonas aeruginosa [28] = experiment: Antibacterial activity against Pseudomonas aeruginosa ATCC 27853 assessed as effect on planktonic growth at 0.68 ug/ml after 20 hrs relative to control; format: functional
Pseudomonas aeruginosa [29] = experiment: Antibacterial activity against Pseudomonas aeruginosa ATCC 27853 assessed as effect on planktonic growth at 1.37 ug/ml after 20 hrs relative to control; format: functional
Staphylococcus aureus [30] = experiment: Antibacterial activity against Staphylococcus aureus ATCC 25923 assessed as effect on planktonic growth at 87.5 ug/ml after 20 hrs relative to control; format: functional
Staphylococcus aureus [31] = experiment: Antibacterial activity against Staphylococcus aureus ATCC 25923 assessed as effect on planktonic growth at 43.8 ug/ml after 20 hrs relative to control; format: functional
[32] = tested on: Staphylococcus epidermidis; experiment: Antibacterial activity against Staphylococcus epidermidis ATCC 35547 assessed as effect on planktonic growth at 1.37 ug/ml after 20 hrs relative to control; format: functional
[33] = tested on: Staphylococcus epidermidis; experiment: Antibacterial activity against Staphylococcus epidermidis ATCC 35547 assessed as effect on planktonic growth at 2.73 ug/ml after 20 hrs relative to control; format: functional
[34] = tested on: Staphylococcus epidermidis; experiment: Antibacterial activity against Staphylococcus epidermidis ATCC 35547 assessed as effect on planktonic growth at 0.68 ug/ml after 20 hrs relative to control; format: functional
Pseudomonas aeruginosa [35] = experiment: Antibacterial activity against Pseudomonas aeruginosa ATCC 27853 assessed as effect on planktonic growth at 0.34 ug/ml after 20 hrs relative to control; format: functional
Streptococcus mutans [36] = experiment: Antibacterial activity against Streptococcus mutans ATCC 25175 assessed as effect on planktonic growth at 87.5 ug/ml after 20 hrs relative to control; format: functional
[37] = tested on: Staphylococcus epidermidis; experiment: Antibacterial activity against Staphylococcus epidermidis ATCC 35547 assessed as effect on planktonic growth at 87.5 ug/ml after 20 hrs relative to control; format: functional
Streptococcus mutans [38] = experiment: Antibacterial activity against Streptococcus mutans ATCC 25175 assessed as effect on planktonic growth at 21.9 ug/ml after 20 hrs relative to control; format: functional
Streptococcus mutans [39] = experiment: Antibacterial activity against Streptococcus mutans ATCC 25175 assessed as effect on planktonic growth at 0.17 ug/ml after 20 hrs relative to control; format: functional
Staphylococcus aureus [40] = experiment: Antibacterial activity against Staphylococcus aureus ATCC 25923 assessed as effect on planktonic growth at 0.68 ug/ml after 20 hrs relative to control; format: functional
Staphylococcus aureus [41] = experiment: Antibacterial activity against Staphylococcus aureus ATCC 25923 assessed as effect on planktonic growth at 21.9 ug/ml after 20 hrs relative to control; format: functional
Pseudomonas aeruginosa [42] = experiment: Antibacterial activity against Pseudomonas aeruginosa ATCC 27853 assessed as effect on planktonic growth at 87.5 ug/ml after 20 hrs relative to control; format: functional

With `COc1ccc(Cl)cc1C1=C(Br)C(=O)O/C1=C\c1ccccc1Br` the Activity [1] was 42.5%, the Activity (Pseudomonas aeruginosa [2]) was -8.1% and the Activity [3] was 27.3%. The Activity (Streptococcus mutans [4]) was 8.2%, the Activity (Staphylococcus aureus [5]) was -16.9% and the Activity [6] was 3.9%. The Activity (Pseudomonas aeruginosa [7]) was -13.4%, the Activity (Staphylococcus aureus [8]) was -16.7% and the Activity (Streptococcus mutans [9]) was 5.6%. It also gave an Activity (Streptococcus mutans [10]) of 4.1%, an Activity [11] of 9.5% and an Activity (Streptococcus mutans [12]) of 4.5%. The Activity (Staphylococcus aureus [13]) was -14%, the Activity (Pseudomonas aeruginosa [14]) was -9.1% and the inhibition (Pseudomonas aeruginosa [15]) was “Dose-dependent effect”. It also gave an IC50 (Pseudomonas aeruginosa [15]) of 3.9 µg/mL (≈ 8.29 µM), an Activity (Streptococcus mutans [16]) of 8.6% and an Activity (Staphylococcus aureus [17]) of -10%. For the same compound, the Activity (Pseudomonas aeruginosa [18]) was -3.8%, the inhibition [19] was “Dose-dependent effect” and the IC50 [19] was 48 µg/mL (≈ 102 µM). The Activity [20] was 51.8%, the Activity (Streptococcus mutans [21]) was 26.9% and the Activity (Pseudomonas aeruginosa [22]) was -7.7%. The Activity (Pseudomonas aeruginosa [23]) was -5.2%, the Activity (Staphylococcus aureus [24]) was -14.4% and the Activity (Streptococcus mutans [25]) was 5.6%. The Activity [26] was 12.1%, the Activity (Staphylococcus aureus [27]) was -7.9% and the Activity (Pseudomonas aeruginosa [28]) was -5.1%. It also gave an Activity (Pseudomonas aeruginosa [29]) of -7%, an Activity (Staphylococcus aureus [30]) of 14.6% and an Activity (Staphylococcus aureus [31]) of -2.9%. It also gave an Activity [32] of 2.5%, an Activity [33] of 2.9% and an Activity [34] of 11.1%. For the same compound, the Activity (Pseudomonas aeruginosa [35]) was -5.3%, the Activity (Streptococcus mutans [36]) was 57.5% and the Activity [37] was 74.6%. It also gave an Activity (Streptococcus mutans [38]) of 22.8%, an Activity (Streptococcus mutans [39]) of 19% and an Activity (Staphylococcus aureus [40]) of -10.6%. For the same compound, the Activity (Staphylococcus aureus [41]) was -8.3% and the Activity (Pseudomonas aeruginosa [42]) was -8.2%.
For `COc1ccc(Br)cc1C1=C(Br)C(=O)O/C1=C\c1ccc(Br)cc1`, the Activity [1] was 22.1%, the Activity (Pseudomonas aeruginosa [2]) was -22% and the Activity [3] was 3.9%. It also gave an Activity (Streptococcus mutans [4]) of 7.2%, an Activity (Staphylococcus aureus [5]) of 15.8% and an Activity [6] of 1%. It also gave an Activity (Pseudomonas aeruginosa [7]) of -15.1%, an Activity (Staphylococcus aureus [8]) of 8.3% and an Activity (Streptococcus mutans [9]) of 3.8%. The Activity (Streptococcus mutans [10]) was 15%, the Activity [11] was 8.1% and the Activity (Streptococcus mutans [12]) was 12.3%. The Activity (Staphylococcus aureus [13]) was 6.7%, the Activity (Pseudomonas aeruginosa [14]) was -12.1% and the inhibition (Pseudomonas aeruginosa [15]) was “Dose-dependent effect”. For the same compound, the IC50 (Pseudomonas aeruginosa [15]) was over 87.5 µg/mL, the Activity (Streptococcus mutans [16]) was 10.3% and the Activity (Staphylococcus aureus [17]) was 0.5%. The Activity (Pseudomonas aeruginosa [18]) was -1.8%, the inhibition [19] was “Dose-dependent effect” and the IC50 [19] was 41.3 µg/mL (≈ 80.2 µM). For the same compound, the Activity [20] was 0.6%, the Activity (Streptococcus mutans [21]) was -11.3% and the Activity (Pseudomonas aeruginosa [22]) was -19.2%. The Activity (Pseudomonas aeruginosa [23]) was -17.6%, the Activity (Staphylococcus aureus [24]) was 5.6% and the Activity (Streptococcus mutans [25]) was 7%. It also gave an Activity [26] of -1.5%, an Activity (Staphylococcus aureus [27]) of -1.6% and an Activity (Pseudomonas aeruginosa [28]) of -1.8%. For the same compound, the Activity (Pseudomonas aeruginosa [29]) was -8.6%, the Activity (Staphylococcus aureus [30]) was 9.4% and the Activity (Staphylococcus aureus [31]) was 13.1%. It also gave an Activity [32] of -2.2%, an Activity [33] of 4.5% and an Activity [34] of -0.2%. The Activity (Pseudomonas aeruginosa [35]) was -1.9%, the Activity (Streptococcus mutans [36]) was -13.5% and the Activity [37] was 31.9%. The Activity (Streptococcus mutans [38]) was 4%, the Activity (Streptococcus mutans [39]) was 4.5% and the Activity (Staphylococcus aureus [40]) was 0.8%. It also gave an Activity (Staphylococcus aureus [41]) of 23.1% and an Activity (Pseudomonas aeruginosa [42]) of -12.9%.
